Source: a melting point compilation (Tetko et al.)

Row | SMILES | melting point [°C]
1 | C1SCSCS1 | 220
2 | COC(=O)c1ccc2c(I)cn(C(=O)OC(C)(C)C)c2c1 | 154 to 155
3 | COC(=O)c1ccc(N2CCN(C(=O)OC(C)(C)C)CC2)cc1 | 166 to 167
4 | O=[N+]([O-])c1cc([N+](=O)[O-])c(/C=C/c2ccc3c(c2)OCO3)cc1/C=C\c1ccc2c(c1)OCO2 | 215
5 | O=C(O)c1ccc2c(c1)C(=O)c1cc(C(=O)O)ccc1-2 | 407
6 | C/C=C/C(=O)OC | -42
7 | O=C1C(=C2C=Cc3cc(-c4ccccc4)ccc3N2)C(=O)c2ccccc21 | 270 to 271
8 | C(=C\P(c1ccccc1)c1ccccc1)/P(c1ccccc1)c1ccccc1 | 123 to 128
9 | Oc1ccc(C2(c3ccc(O)cc3)CC3CC2C2CCCC32)cc1 (configuration not stated) | 219 to 221
10 | CC1(C)CC(=O)C(=NNc2ccccc2[N+](=O)[O-])C(=O)C1 | 139 to 140
11 | O=C1c2ccc(O)c(O)c2C(=O)c2ccc(O)c(O)c21 | 340
12 | CC(C)=CC1C(C(=O)OCc2coc(Cc3ccccc3)c2)C1(C)C (configuration not stated) | 56.5
13 | CCC(C)(C)c1ccc(O)c(C(C)(C)CC)c1 | 25
14 | Cc1ccc(C)c(C(=O)N(NC(=O)c2ccccc2)C(C)(C)C)c1 | 198
15 | CC(C)c1ccc(C=CC(=O)O)cc1 | 157 to 161
16 | COc1cc(C(=O)Nc2nnc(-c3ccc(Cl)cc3)o2)cc(OC)c1OC | 261 to 263
17 | CCN(CC)C(=O)c1[nH]c(C)c(C)c1C | 113 to 115
18 | CC1(C)CCC2(C)CC=C3C(C)(CCC4C3(C)CCC3C(C)(C)C(O)CCC43C)C2C1 (configuration not stated) | 284
19 | COc1cccc(OC)c1/C=N/n1c(S)nnc1C(F)(F)F | 178
20 | O=[N+]([O-])c1ccc(-c2nnc3n2CN(c2ccccc2)CS3)cc1 | > 320
21 | COc1cc(F)c(F)cc1CBr | 42
22 | c1ccc2c(c1)OCCOCCOCCOCCOc1ccccc1OCCOCCO2 | 59 to 63

Row | SMILES | melting point [°C]
23 | O=C(O)C1CCNCC1 | 336
24 | CC12CCC(C1(C)C)C(CCCc1ccccc1)(C1(CCCc3ccccc3)C(=O)C3(C)CCC1C3(C)C)C2=O (configuration not stated) | 250
25 | OCCCCCCCCl | 11
26 | CC12CCC(O)CC1CCC1C2C(O)CC2(C)C1CCC2(O)C(=O)CO (configuration not stated) | 244
27 | CC1(C)C=[N+]([O-])C(C)(C)N1O | 160 to 163
28 | OCCCCCCCCCCl | 28
29 | CC(C)=CCC/C(C)=N/NC(N)=O | 136
30 | O=S1(=O)C=Cc2ccccc21 | 138 to 142
31 | CC(=O)CCc1oc2ccc(I)cc2c1-c1ccc(C)o1 | 94
32 | N#CCc1ccc2ccccc2c1 | 78 to 88
33 | Clc1cccc(Cl)c1N=C1NCCN1 | 130
34 | Fc1cccc(Cl)c1CCl | 7
35 | C[C@@]12CCC=C1[C@@H]1CC[C@@H]3C[C@H](O)CC[C@]3(C)[C@H]1CC2 | 129 to 130
36 | Nc1cccc(Cc2cccc(N)c2)c1 | 81.5
37 | O=[N+]([O-])c1cnc(Cl)c([N+](=O)[O-])c1 | 63 to 66
38 | COc1cc(C(c2ccc(C)o2)c2ccc(C)o2)c(O)cc1[N+](=O)[O-] | 104
39 | O=C(CCCCC(=O)NCCCC(=O)ON1C(=O)CCC1=O)NCCCC(=O)ON1C(=O)CCC1=O | 145
40 | COC(=O)c1ccc(OC)c(C#N)c1 | 124 to 125
41 | CN(C)S(=O)(=O)c1cccc(C(=O)c2ccccc2)c1 | 82 to 84
42 | Cc1ccccc1N(C)C | -60
43 | CCC1CCC(=O)O1 (configuration not stated) | -18
44 | NC(=O)CC(N)=O | 169

Row | SMILES | melting point [°C]
45 | CCCCC(CC)COC(=O)c1ccc(C(=O)OCC(CC)CCCC)cc1 (configuration not stated) | 30 to 34
46 | O=Cc1ccc(OP(=S)(Oc2ccc(C=O)cc2)Oc2ccc(C=O)cc2)cc1 | 115 to 119
47 | CCOC=C(C#N)S(=O)(=O)Cc1ccco1 | 98 to 100
48 | O=C(NC(Cc1cccnc1)C(=O)O)OCC1c2ccccc2-c2ccccc21 (configuration not stated) | 166
49 | COc1ccc(P(c2ccc(OC)cc2)c2ccc(OC)cc2)cc1 | 131 to 134
50 | c1ccc(Cn2cccc2)cc1 | 15
51 | CC(C)OP(=O)(CCP(=O)(OC(C)C)OC(C)C)OC(C)C | 35.5
52 | CCCCCOC(=O)CCCCC | -47
53 | N#Cc1ccc(Oc2ccc(C(F)(F)F)cc2N)cc1 | 106 to 108
54 | COc1cc([N+](=O)[O-])ccc1C | 69 to 74
55 | NC(=O)CN(CC(=O)O)CC(=O)O | 219
56 | CC(=O)CC[C@H]1[C@@H](C#N)[C@H](C(C)C)CC[C@@]1(C)OC(C)=O | 106 to 109
57 | S=C=Nc1ccc(N=Nc2ccccc2)cc1 | 97
58 | CC(C)=CCCC(C)=CC=CC(C)=CC=CC(C)=CC=CC=C(C)C=CC=C(C)C=CC1=C(C)CCCC1(C)C | 178
59 | C/C=C/C=C(C)/C=N/Nc1ccc([N+](=O)[O-])cc1[N+](=O)[O-] | 198 to 200
60 | Clc1ccc(C(c2ccccc2Cl)C(Cl)Cl)cc1 (configuration not stated) | 77
61 | CC(=O)OCC1OC(OC2(COC(C)=O)OC(COC(C)=O)C(OC(C)=O)C2OC(C)=O)C(OC(C)=O)C(OC(C)=O)C1OC(C)=O (configuration not stated) | 86.5
62 | O=C(O)C(O)(O)C(O)(O)C(=O)O | 114
63 | FC(F)(F)c1ccc2c(c1)Nc1ccccc1S2 | 189
64 | O=[N+]([O-])c1ccc(-c2nnc3n2NC(c2ccc([N+](=O)[O-])cc2)S3)cc1 (configuration not stated) | 229
65 | CCC(CC)(CBr)CBr | 40
66 | Cc1cccc(NC(=O)c2cnc(C(C)(C)C)c(Cl)n2)c1 | 99

Further lines, results first:

Row | melting point [°C] | SMILES
67 | 76 | Cc1cccc(N2CC(CO)OC2=O)c1 (configuration not stated)
68 | 322 to 328 | NC(CC1CCCCC1)C(=O)O (configuration not stated)
69 | 144 | Cc1cc(C2CCCCC2)n(O)c(=O)c1
70 | 176 | OCC1OC(OC2C(CO)OC(O)(CO)C2O)C(O)C(O)C1O (configuration not stated)
71 | 65.5 to 67 | O=C(Oc1c(F)c(F)c(F)c(F)c1F)c1cccnc1
72 | 98 | COc1ccc(CCC(=O)O)cc1OC
73 | 172 to 178 | Oc1ccc(O)c2c1C1CCC2C1
74 | 136 | CNC(=O)OCc1cccc(COC(=O)NC)n1
75 | 156 | COc1ccc(C2C(=O)c3ccccc3C2=O)cc1
76 | 215 to 218 | NC(=O)Nc1ccc(C2=NNC(=O)CC2)cc1
77 | 75 | COc1ccc(F)c(O)c1F
78 | 53 to 57 | CCOC(=O)c1c(Cl)cc(C)nc1Cl
79 | 232 to 234 | CSc1sc(C(=O)O)c(-c2cccc(C(F)(F)F)c2)c1C#N
80 | 78 to 79 | O=C1CCCc2ccc(Br)cc21
81 | 144 to 146 | Nc1cc2ccccc2c(Br)n1
82 | 251 to 256 | Nc1c(I)cc([N+](=O)[O-])cc1I
83 | 211 | Cc1ccc(C(=O)c2nn3c(nc(=O)c4ccccc43)s2)cc1
84 | 124 to 125 | Cc1csc2c(Cl)ncnc12
85 | 139 to 141 | CCOc1cc([N+](=O)[O-])c(OCC)cc1N1CCOCC1

Row | melting point [°C] | SMILES
86 | 34 to 36 | Cc1cc(C)nc(Cl)n1
87 | 324 | O=S(=O)(O)CCCNC1CCCCC1
88 | 126 to 127 | O=C(O)c1ccc(Oc2ccccc2)o1
89 | 43 to 46 | N#Cc1cc(F)cc(Br)c1
90 | 29 | CCOC(=O)c1cc(C)on1
91 | 177 | CC1=C(C(=O)OC(C)C)C(c2ccccc2)NC(=S)N1 (configuration not stated)
92 | 126 | COc1ccc2c3c1OC1CC(O)C=CC31CCN(C)C2 (configuration not stated)
93 | 115 to 117 | O=C1Cc2c1cccc2[N+](=O)[O-]
94 | 111 to 112 | COC(=O)c1cc(C)nn1C(=O)OC
95 | 148 | CCOC(=O)C1=C(CBr)NC(=O)NC1C (configuration not stated)
96 | 323 | N#CC1=C(N)n2nc(C(F)(F)F)nc2NC1c1c(Cl)cccc1Cl (configuration not stated)
97 | 134 to 136 | COc1cc(F)ccc1C(=O)O
98 | 208 to 210 | CC(=O)NC1C(Oc2ccc3c(C)cc(=O)oc3c2)OC(CO)C(O)C1O (configuration not stated)
99 | 188 | O=c1[nH]c(=O)n(C2CC(O)C(CO)O2)cc1C(F)(F)F (configuration not stated)
100 | 132 | O=C(c1ccc2c(c1O)CC=CC2)c1cccc2ccccc12
101 | 138 | Nc1nc(=O)n(C2CSC(CO)O2)cc1F (configuration not stated)
102 | 235 to 253 | NC(=O)C1C2C=CC(C2)C1N (configuration not stated)
103 | 178 to 181 | O=C1CSc2ccccc2N1
104 | 55 to 61 | O=C(Cl)c1cccc2c1OCC2

Row | melting point [°C] | SMILES
105 | 113 | Nc1ccc(OCCCCCN2C(=O)c3ccccc3C2=O)cc1
106 | 313 | CC1=NN(c2ccccc2)C(=O)/C1=N\Nc1ccc(C(=O)O)cc1
107 | 153 to 157 | NNC(=O)COc1ccc(Cl)cc1Cl
108 | 251 to 252 | O=c1[nH]cnc2c1cnn2C1CCCCC1
109 | 130 | N#C/C(=C\c1ccc(Cl)cc1)c1nc(-c2cccc3ccccc23)cs1
110 | 316 to 317 | O=C(O)c1ccc(-c2cncnc2)cc1
111 | 139 | CCOC(=O)C(CCc1ccccc1)NC(C)C(=O)N1C(=O)N(C)CC1C(=O)O (configuration not stated)
112 | 126 to 132 | Cc1cc(Cl)cc([N+](=O)[O-])c1N
113 | 130 to 133 | Cn1c(S)nnc1Cc1ccsc1
114 | 121 to 122 | COc1cccc2cc(C(=O)Cc3c(C)cc(C)cc3C)oc12
115 | 66.5 to 69.8 | CCOC(=O)c1csc(C2COc3ccccc3O2)n1 (configuration not stated)
116 | 155 | O=C1CSC2(CCN(CCCN3c4ccccc4Sc4ccc(Cl)cc43)CC2)N1
117 | 143 | CC1=C(Cl)CCP(=O)(c2ccccc2)C1 (configuration not stated)
118 | 102 to 104 | CSc1nc(N)nc(C(C)(C)C)n1
119 | 245 to 246 | O=[N+]([O-])c1ccc(C2Nn3c(nnc3-c3cccnc3)S2)cc1 (configuration not stated)
120 | 67 | COC(=O)c1ccc(Cl)cc1N
121 | 178 | COc1cc(C=C2CCCC(=Cc3ccc(O)c(OC)c3)C2=O)ccc1O
122 | 64 to 67 | Cc1noc(-c2ccccc2CBr)n1
